Results on 16 molecules are retold here after US5710130A, “Antithrombotic agents” (Eli Lilly and Company, priority 1995, dated 1998).

Holding throughout (type): biochemical
The target in experiment [1] is Human Thrombin (Homo sapiens, UniProt P00734). Put plainly: Inhibition of thrombin amidase activity (Kass), chromogenic substrate. Particulars: mean Kass over a range of concentrations; substrate N-benzoyl-Phe-Val-Arg-p-nitroanilide.
Experiment [2] relates to human plasma. Put plainly: Human plasma anticoagulation, activated partial thromboplastin time (APTT). As to conditions: concentration required to double APTT, linear extrapolation. As to the method:
(§1) Dog plasma and rat plasma is obtained from conscious mixed-breed hounds (either sex, Hazelton-LRE, Kalamazoo, Mich., U.S.A.) or from anesthetized male Sprague-Dawley rats (Harlan Sprague-Dawley, Inc., Indianapolis, Ind., U.S.A.) by venipuncture into 3.8 percent citrate. Fibrinogen is prepared from in-date ACD human blood as the fraction I-2 according to previous procedures and specifications. […] Human fibrinogen is also purchased as 98 percent pure/plasmin free from American Diagnostica, Greenwich, Conn. Coagulation reagents ACTIN, Thromboplastin, and Human plasma are from Baxter Healthcare Corp., Dade Division, Miami, Fla. Bovine thrombin from Parke-Davis ([…], Mich.) is used for coagulation assays in plasma.
(§2) Coagulation assay procedures are as previously described. […] A CoAScreener coagulation instrument (American LABor, Inc.) is used for all coagulation assay measurements. The prothrombin time (PT) is measured by adding 0.05 mL saline and 0.05 mL Thromboplastin-C reagent to 0.05 mL test plasma. The activated partial thromboplastin time (APTT) is measured by incubation of 0.05 mL test plasma with 0.05 mL Actin reagent for 120 seconds followed by 0.05 mL CaCl2 (0.02M). The thrombin time (TT) is measured by adding 0.05 mL saline and 0.05 mL thrombin (10 NIH units/mL) to 0.05 mL test plasma. The compounds of Formula I are added to human or animal plasma over a wide range of concentrations to determine prolongation effects on the APTT, PT, and TT assays. Linear extrapolations are performed to estimate the concentrations required to double the clotting time for each assay.

For experiment [3], the system named is human plasma. Put plainly: Human plasma anticoagulation, thrombin time (TT). As to conditions: concentration required to double thrombin time, linear extrapolation. How it is done:
as §1, §2

Experiment [4] has as its system human plasma. Put plainly: Human plasma anticoagulation, prothrombin time (PT). As to conditions: concentration required to double PT, linear extrapolation. As to the method:
as §1, §2

Counter-ions that a name gives are not always drawn.

`CCS(=O)(=O)N[C@H](CC1CCCCC1)C(=O)N1CCC[C@H]1C(=O)NCc1ccnc(N)c1.Cl` [Example 83, EtSO2 -D-Cha-Pro-4-NHCH2 -2-aminopyridine.HCl]: the “Kass Human Thrombin” value in experiment [1] is 2.4 × 10^6 (L/mole). The “Human Plasma Anticoagulation 2x Clotting time APTT” value in experiment [2] is 1,000 ng/mL. Besides, the “Human Plasma Anticoagulation 2x Clotting time TT” value in experiment [3] is reported as 91 ng/mL. Moreover, the “Human Plasma Anticoagulation 2x Clotting time PT” value in experiment [4] is recorded as 1,300 ng/mL.
The like results for `CCS(=O)(=O)N[C@H](CC1CCCCC1)C(=O)N1CCC[C@H]1C(=O)NCc1ccc(N)cc1F.Cl` [Example 82, EtSO2 -D-Cha-Pro-4-NHCH2 -3-F-C6 H3 NH2.HCl] were, in that order, 5.0 × 10^6 (L/mole), 3,800 ng/mL, 130 ng/mL and 3,000 ng/mL.
For `CCS(=O)(=O)N[C@H](CC1CCCCC1)C(=O)N1CCC[C@H]1C(=O)NCc1ccc(N)nc1.Cl` [Example 84, EtSO2 -D-Cha-Pro-5-NHCH2 -2-aminopyridine.HCl], in that order: 2.9 × 10^6 (L/mole), 1,500 ng/mL, 110 ng/mL and 1,900 ng/mL.
For `CCS(=O)(=O)N[C@H](CC1CCCCC1)C(=O)N1CCC[C@H]1C(=O)NCc1ccc(C(=N)N)cc1` [Example 80, N-(ethylsulfonyl)-D-cyclohexylalanyl-N-[[4-(aminoiminomethyl)phenyl]methyl]-L-prolinamide hydrochloride], in that order: 1,700 × 10^6 (L/mole), 40 ng/mL, 4 ng/mL and 130 ng/mL.
Consider `Cl.O=C(O)CNC(CC1CCCCC1)C(=O)N1CCCC1C(=O)NCCC1CCNCC1` [Example 54, HO2 CCH2 -D-Cha-Pro-4-NHCH2 CH2 -piperidine.HCl], for which, in experiment [1], the “Kass Human Thrombin” value was 2.8 × 10^6 (L/mole). Moreover, in experiment [2], the “Human Plasma Anticoagulation 2x Clotting time APTT” value is given as 3,300 ng/mL. The “Human Plasma Anticoagulation 2x Clotting time TT” value in experiment [3] is 140 ng/mL. Further, the “Human Plasma Anticoagulation 2x Clotting time PT” value in experiment [4] is reported as 2,200 ng/mL.
As for `N=C(N)c1ccc(CNC(=O)[C@@H]2CCCN2C(=O)[C@H](NCC(=O)O)C2CCCCC2)cc1` [Example 86, N-(carboxymethyl)-D-cyclohexylglycyl-N-[[4-(aminoiminomethyl)phenyl]methyl]-L-prolinamide hydrochloride], in experiment [1], the “Kass Human Thrombin” value is recorded as 200 × 10^6 (L/mole). Also, the “Human Plasma Anticoagulation 2x Clotting time APTT” value in experiment [2] is on record as 81 ng/mL. Besides, the “Human Plasma Anticoagulation 2x Clotting time TT” value in experiment [3] was 4 ng/mL. The “Human Plasma Anticoagulation 2x Clotting time PT” value in experiment [4] is 180 ng/mL.
As to `Cl.N=C(N)c1cccc(CNC(=O)[C@@H]2CCCN2C(=O)[C@H](N)Cc2ccccc2)c1` [Example 16, D-Phe-Pro-m-NHCH2 C6 H4 C(NH)NH2.0.75HCl], the “Kass Human Thrombin” value in experiment [1] is reported as 0.97 × 10^6 (L/mole). Moreover, in experiment [2], the “Human Plasma Anticoagulation 2x Clotting time APTT” value is listed as 8,600 ng/mL. In addition, the “Human Plasma Anticoagulation 2x Clotting time TT” value in experiment [3] was 650 ng/mL. Further, the “Human Plasma Anticoagulation 2x Clotting time PT” value in experiment [4] is 8,500 ng/mL.
For the molecule `Cl.Cl.N=C(N)c1cccc(CCNC(=O)[C@@H]2CCCN2C(=O)[C@@H]2NCC[C@@H]3CCCC[C@@H]32)c1` [Example 29, D-1-Piq-Pro-m-NHCH2 CH2 -C6 H4 C(=NH )NH2.2HCl], the “Kass Human Thrombin” value in experiment [1] is 0.76 × 10^6 (L/mole). Besides, in experiment [2], the “Human Plasma Anticoagulation 2x Clotting time APTT” value is reported as 9,800 ng/mL. Further, the “Human Plasma Anticoagulation 2x Clotting time PT” value in experiment [4] is 15,000 ng/mL.
`Cl.O=C(O)CN[C@H](CC1CCCCC1)C(=O)N1CCC[C@H]1C(=O)NCCC1=CCNCC1` [Example 59, HO2 CCH2 -D-Cha-Pro-4-NHCH2 CH2 -3,4-dehydro-piperidine.HCl]: the “Kass Human Thrombin” value in experiment [1] is 1.10 × 10^6 (L/mole). Moreover, the “Human Plasma Anticoagulation 2x Clotting time APTT” value in experiment [2] is reported as 5,500 ng/mL. Besides, in experiment [3], the “Human Plasma Anticoagulation 2x Clotting time TT” value is 420 ng/mL. In experiment [4], the “Human Plasma Anticoagulation 2x Clotting time PT” value is given as 7,000 ng/mL.
In the case of `N=C(N)c1ccc(CNC(=O)[C@@H]2CCCN2C(=O)[C@H]2C[C@H]3CCCC[C@H]3CN2)cc1` [Example 19, D-3-Piq-Pro-p-NHCH2 C6 H4 C(NH)NH2.3HCl], the “Kass Human Thrombin” value in experiment [1] is listed as 11 × 10^6 (L/mole). Also, in experiment [2], the “Human Plasma Anticoagulation 2x Clotting time APTT” value is listed as 300 ng/mL. Also, the “Human Plasma Anticoagulation 2x Clotting time TT” value in experiment [3] is reported as 58 ng/mL. For the same molecule, in experiment [4], the “Human Plasma Anticoagulation 2x Clotting time PT” value is given as 540 ng/mL.
On to `Cl.Nc1cc(CCNC(=O)[C@@H]2CCCN2C(=O)[C@@H](CC2CCCCC2)NCC(=O)O)ccn1` [Example 76, HO2 CCH2 -D-Cha-Pro-4-NHCH2 CH2 -2-aminopyridine.HCl], for which the “Kass Human Thrombin” value in experiment [1] is on record as 12 × 10^6 (L/mole). Besides, the “Human Plasma Anticoagulation 2x Clotting time APTT” value in experiment [2] is given as 490 ng/mL. Further, in experiment [3], the “Human Plasma Anticoagulation 2x Clotting time TT” value is recorded as 29 ng/mL. Further, the “Human Plasma Anticoagulation 2x Clotting time PT” value in experiment [4] is reported as 560 ng/mL.
For `Cl.Nc1ccc(CNC(=O)[C@@H]2CCCN2C(=O)[C@@H](CC2CCCCC2)NCC(=O)O)cn1` [Example 74, HO2 CCH2 -D-Cha-Pro-5-NHCH2 -2-aminopyridine.HCl], the “Kass Human Thrombin” value in experiment [1] was 29 × 10^6 (L/mole). Further, the “Human Plasma Anticoagulation 2x Clotting time APTT” value in experiment [2] is 420 ng/mL. Also, the “Human Plasma Anticoagulation 2x Clotting time TT” value in experiment [3] is given as 20 ng/mL. The “Human Plasma Anticoagulation 2x Clotting time PT” value in experiment [4] is listed as 350 ng/mL.
For `Cl.N=C(N)c1ccc(CNC(=O)CN(CCc2ccccc2)C(=O)CNCC(=O)O)cc1` [Example 89, HOOCCH2 -Gly-N-C6 H5 CH2 CH2 Gly-p-NHCH2 C6 H4 C(NH)NH2.HCl], in that order: 0.14 × 10^6 (L/mole), 51,000 ng/mL, 570 ng/mL and 37,000 ng/mL.
Take `Cl.Cl.N=C(N)c1ccc(CCNC(=O)[C@@H]2CCCN2C(=O)[C@@H]2NCC[C@@H]3CCCC[C@@H]32)cc1` [Example 28, D-1-Piq-pro-p-NHCH2 CH2 -C6 H4 C(=NH)NH2.2HCl]: in experiment [1], the “Kass Human Thrombin” value is 0.95 × 10^6 (L/mole). Further, in experiment [2], the “Human Plasma Anticoagulation 2x Clotting time APTT” value is given as 8,100 ng/mL. Also, the “Human Plasma Anticoagulation 2x Clotting time PT” value in experiment [4] is 8,300 ng/mL.
As to `N=C(N)N1CCC(CCNC(=O)[C@@H]2CCCN2C(=O)[C@@H](CC2CCCCC2)NCC(=O)O)CC1` [Example 57, HO2 CCH2 -D-Cha-Pro-4-NHCH2 CH2 -1-amidinopiperidine.HCl], the “Kass Human Thrombin” value in experiment [1] is reported as 39 × 10^6 (L/mole). Besides, in experiment [2], the “Human Plasma Anticoagulation 2x Clotting time APTT” value is given as 360 ng/mL. In addition, the “Human Plasma Anticoagulation 2x Clotting time TT” value in experiment [3] is 14 ng/mL. Also, the “Human Plasma Anticoagulation 2x Clotting time PT” value in experiment [4] is recorded as 340 ng/mL.
For `Nc1ccc(CNC(=O)[C@@H]2CCCN2C(=O)[C@@H](CC2CCCCC2)NCC(=O)O)cc1F` [Example 77, HO2 CCH2 -D-Cha-pro-4-NHCH2-2-F-aniline.HCl], in that order: 11 × 10^6 (L/mole), 1,600 ng/mL, 53 ng/mL and 890 ng/mL.
